pKi: −log10 of the molar value.
Tests used:
muscarinic M2 receptor = muscarinic M2 receptor (Homo sapiens (Human), UniProt P08172); assay: Muscarinic M2 receptor binding assay (assay 1); settings: [3H]AF-DX 384 2 nM, Cheng Prusoff
Protocol: Cell membrane homogenates (60 μg protein) were incubated for 60 minutes at 22° C. with 2 nM [3H]AF-DX 384 in the absence or presence of the test compound in a buffer containing 50 mM Tris-HCl (pH 7.4), 120 mM NaCl, 5 mM KCl, 5 mM MgCl2, and 1 mM EDTA. Nonspecific binding was determined in the presence of 1 μM atropine. Following incubation, the samples were filtered rapidly under vacuum through glass fiber filters (GF/B, Packard) presoaked with 0.3% PEI and rinsed several times with ice-cold 50 mM Tris-HCl using a 96-sample cell harvester (Unifilter, Packard). The filters were dried then counted for radioactivity in a scintillation counter (Topcount, Packard) using a scintillation cocktail (Microscint 0, Packard). The results were expressed as a percent inhibition of the control radioligand specific binding, from which the Ki was calculated. Data were analyzed using software developed at Cerep (Hill software) and validated by comparison with data generated by the commercial software SigmaPlot®4.0 for Windows® (© 1997 by SPSS Inc.). The inhibition constant, Ki, was calculated using the Cheng Prusoff equation:
where L=concentration of ligand in the assay, and Kd=affinity of the ligand for the receptor. The standard reference compound was methoctramine, which was tested in each experiment at several concentrations to obtain a competition curve from which its IC50 was calculated.

[1] = Caco-2 cell monolayers intrinsic permeation assay in the presence of efflux inhibitors; assay type: in vitro ADME; settings: Caco-2, with efflux inhibitors
Source text: Caco-2 cells were obtained from American Type Culture Collection (ATCC). HEPES, penicillin, streptomycin, bovine serum albumin (BSA) were obtained from Beijing Xinjingke Biotechnology Co, Ltd. Fetal bovine serum, Hank's balanced salt solution (HBSS) and non-essential amino acids (NEAA) were purchased from Gibco. Dulbecco's Modified Eagle's Medium (DMEM) was purchased from Corning and MES from Sigma. HTS Transwell-24 permeable supports were purchased from Corning. Zosuquidar and Ko-143 were obtained from MedChemExpress and Benzbromarone from Sigma.
The Caco-2 cell culture medium consisted of DMEM with high glucose and L-glutamine supplemented with 10% FBS, 0.1 mg/mL streptomycin, 100 units of penicillin, 0.6 mg/mL kanamycin sulfate and 1×NEAA. […] culture medium was added to each Transwell insert with 800 mL added to each well of the reservoir. After incubation at 37° C. in 5% CO2 for 1 hour, the plates were ready for seeding.
The cells were cultivated in T-75 flasks at 37° C., 5% CO2, 95% relative humidity. At 80 to 90% confluence, cells were treated with trypsin/EDTA treatment until they became detached. The trypsin/EDTA was inactivated by adding excess serum containing medium. The cell suspension was centrifuged at 120 g for 10 minutes followed by resuspension of the cell pellet in seeding medium at a cell density of 7.92×10^5 cells/mL.
[…] of the resulting cell suspension was added to each well of the Transwell plate and incubated for 14 to 18 days, with medium replaced every other day. After incubation for 14 to 18 days, the cells should have reached confluence and should be tested for electrical resistance using a Millicel Epithelial Volt-Ohm measuring system (Millipore).
The cell monolayers were washed twice with pre-warmed HBSS and incubated at 37° C. for 30 minutes under gentle shaking (480 rpm).
The compound under test was presented as a 10 mM DMSO stock solution. 2 mL of the 10 mM stock was added to 8 mL DMSO to produce a 2 mM stock. 2 mL was added to 398 mL of HBSS containing 10 mM Zosuquidar, 30 mM Benzbromarone and 2 mM KO-143 to make a […] solution.
210 mL of the test compound solution was added to the apical compartment of the Transwell plate, with a 10 mL sample taken to act as the time 0 sample. The wells of the receiver (basolateral) compartment were filled with 800 mL HBSS (containing the efflux inhibitors). The plates were incubated at 37° C. with shaking at 480 rpm for 120 minutes with sampling at 45 and 120 minutes.
At each sampling time (0, 45 and 120 minutes) 10 mL was removed from the apical compartment and add to 90 mL (HBSS containing the efflux inhibitors). 100 mL was removed from each basolateral compartment. 3 volumes of cold acetonitrile containing internal standard was added to each sample and vortex mixed for 10 minutes at 100 rpm. Samples were then centrifuged at 400 rpm for 20 minutes. 50 mL of the supernatant was taken for LC/MS/MS analysis to determine compound concentration.
The apparent permeability (Papp), in units of centimetre per second, were calculated for Caco-2 drug transport using the following equation: […]
Where CR is the concentration of compound in the receiver side at the respective time point, CD is the concentration of compound in the donor side at the respective timepoint. Area is the surface area of the membrane and time is 4500 seconds (75×60 seconds).

Sequence of muscarinic M2 receptor (P08172 whole entry): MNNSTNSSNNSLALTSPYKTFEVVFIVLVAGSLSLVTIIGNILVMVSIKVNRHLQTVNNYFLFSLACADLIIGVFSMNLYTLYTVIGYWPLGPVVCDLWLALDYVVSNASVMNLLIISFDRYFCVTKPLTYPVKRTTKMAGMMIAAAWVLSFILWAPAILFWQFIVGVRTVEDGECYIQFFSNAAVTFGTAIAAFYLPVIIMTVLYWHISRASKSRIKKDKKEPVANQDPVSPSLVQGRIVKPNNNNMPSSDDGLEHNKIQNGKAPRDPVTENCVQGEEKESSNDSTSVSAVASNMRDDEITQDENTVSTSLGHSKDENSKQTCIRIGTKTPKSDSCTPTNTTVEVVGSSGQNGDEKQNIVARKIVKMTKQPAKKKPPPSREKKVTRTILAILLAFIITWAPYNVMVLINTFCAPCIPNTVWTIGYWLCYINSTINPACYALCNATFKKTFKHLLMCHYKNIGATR

Structure (SMILES) | pKi (muscarinic M2 receptor) | Papp A→B [1] [×10⁻⁶ cm/s]
CC(C)N(C(=O)c1cc(F)ccc1-n1cc(C(=O)C2CCN(C(=O)[C@H]3NC[C@@H]4C[C@@H]43)CC2)c2ccncc21)C(C)C [Example 19, 2-(3-(1-((1S,2S,5R)-3-Azabicyclo[3.1.0]hexane-2-carbonyl)piperidine-4-carbonyl)-1H-pyrrolo[2,3-c]pyridin-1-yl)-5-fluoro-N,N-diisopropylbenzamide] | 5.85 | 2.6
CC(C)N(C(=O)c1cc(F)ccc1-n1cc(C(=O)C2CCN(C(=O)[C@H]3NC[C@@H]4CCC[C@@H]43)CC2)c2ccncc21)C(C)C [Example 21, 5-Fluoro-N,N-diisopropyl-2-(3-(1-((1S,3αR,6αS)-octahydrocyclopenta[c]pyrrole-1-carbonyl)piperidine-4-carbonyl)-1H-pyrrolo[2,3-c]pyridin-1-yl)benzamide] | 6.30 | 1.7
C[C@@H]1COC[C@@H](C)N1C(=O)c1cc(F)ccc1-n1cc(C(=O)C2CCN(C(=O)[C@H]3N[C@@H]4CC[C@H]3C4)CC2)c2ccncc21 [Example 34, (1-((1R,3S,4S)-2-Azabicyclo[2.2.1]heptane-3-carbonyl)piperidin-4-yl)(1-(2-((3R,5R)-3,5-dimethylmorpholine-4-carbonyl)-4-fluorophenyl)-1H-pyrrolo[2,3-c]pyridin-3-yl)methanone] |  | 0.2
Cc1c(C(=O)[C@@H]2CCN(C(=O)[C@@H]3CC[C@H](C)N3)[C@@H](C)C2)c2ccncc2n1-c1ccc(F)cc1C(=O)N(C(C)C)C(C)C (stereo in doubt) [Example 62, 5-Fluoro-N,N-diisopropyl-2-(2-methyl-3-((2S,4RS)-2-methyl-1-((2S,5S)-5-methylpyrrolidine-2-carbonyl)piperidine-4-carbonyl)-1H-pyrrolo[2,3-c]pyridin-1-yl)benzamide] |  | 4.9
CC(C)N(C(=O)c1cc(F)ccc1-n1cc(C(=O)C2CN(C(=O)[C@H]3NC4CCC3CC4)C2)c2ccncc21)C(C)C [Example 6, (S)-2-(3-(1-(2-Azabicyclo[2.2.2]octane-3-carbonyl)azetidine-3-carbonyl)-1H-pyrrolo[2,3-c]pyridin-1-yl)-5-fluoro-N,N-diisopropylbenzamide] | 5.64 | < 0.5
O=C(c1cn(-c2ccc(F)cc2-c2cncnc2C2CC2)c2cnccc12)C1CCN(C(=O)[C@H]2N[C@@H]3CC[C@H]2C3)CC1 [Example 40, (1-((1R,3S,4S)-2-Azabicyclo[2.2.1]heptane-3-carbonyl)piperidin-4-yl)(1-(2-(4-cyclopropylpyrimidin-5-yl)-4-fluorophenyl)-1H-pyrrolo[2,3-c]pyridin-3-yl)methanone] |  | 0.3
CCN(C(=O)c1cc(F)ccc1-n1cc(C(=O)C2CCN(C(=O)[C@H]3N[C@@H]4CC[C@H]3C4)CC2)c2ccncc21)C(C)C [Example 31, 2-(3-(1-((1R,3S,4S)-2-Azabicyclo[2.2.1]heptane-3-carbonyl)piperidine-4-carbonyl)-1H-pyrrolo[2,3-c]pyridin-1-yl)-N-ethyl-5-fluoro-N-isopropylbenzamide] | 7.00 | 0.1
COCCN(C)CCC[C@H](C(C)C)N1CCC(C(=O)c2cn(-c3ccc(F)cc3C(=O)N(C(C)C)C(C)C)c3cnccc23)CC1 (racemic) [Example 23, rac-(R)-5-Fluoro-N,N-diisopropyl-2-(3-(1-(6-((2-methoxyethyl)(methyl)amino)-2-methylhexan-3-yl)piperidine-4-carbonyl)-1H-pyrrolo[2,3-c]pyridin-1-yl)benzamide] | 7.00 | 1.5
CC(C)N(C(=O)c1cc(F)ccc1-n1cc(C(=O)C2CCN(C(=O)[C@H]3NC4CCC3CC4)CC2)c2ccncc21)C(C)C [Example 20, (S)-2-(3-(1-(2-Azabicyclo[2.2.2]octane-3-carbonyl)piperidine-4-carbonyl)-1H-pyrrolo[2,3-c]pyridin-1-yl)-5-fluoro-N,N-diisopropylbenzamide] | 6.10 | 0.8
CC(C)c1ncccc1-c1cc(F)ccc1-n1cc(C(=O)C2CCN(C(=O)[C@H]3N[C@@H]4CC[C@H]3C4)CC2)c2ccncc21 [Example 38, (1-((1R,3S,4S)-2-Azabicyclo[2.2.1]heptane-3-carbonyl)piperidin-4-yl)(1-(4-fluoro-2-(2-isopropylpyridin-3-yl)phenyl)-1H-pyrrolo[2,3-c]pyridin-3-yl)methanone] | 6.52 | 1.5
CC(C)c1ncsc1-c1cc(F)ccc1-n1cc(C(=O)C2CN(C(=O)[C@H]3N[C@@H]4CC[C@H]3C4)C2)c2ccncc21.O=CO [Example 12, (1-((1R,3S,4S)-2-Azabicyclo[2.2.1]heptane-3-carbonyl)azetidin-3-yl)(1-(4-fluoro-2-(4-isopropylthiazol-5-yl)phenyl)-1H-pyrrolo[2,3-c]pyridin-3-yl)methanone 1·formic acid] | 5.16 | 1.6
Cc1c(C(=O)C2CCN(C(=O)[C@H]3NC[C@@H]4C[C@@H]43)CC2)c2ccncc2n1-c1ccc(F)cc1C(=O)N(C(C)C)C(C)C (single isomer, unassigned) [Example 55-1] | 5.42 | 3.7
CC(C)c1ccncc1-c1cc(F)ccc1-n1cc(C(=O)C2CCN(C(=O)[C@H]3N[C@@H]4CC[C@H]3C4)CC2)c2ccncc21 [Example 41, (1-((1R,3S,4S)-2-Azabicyclo[2.2.1]heptane-3-carbonyl)piperidin-4-yl)(1-(4-fluoro-2-(4-isopropylpyridin-3-yl)phenyl)-1H-pyrrolo[2,3-c]pyridin-3-yl)methanone] | 7.00 | 0.5
CCN(C(=O)c1cc(F)ccc1-n1c(C)c(C(=O)[C@@H]2CCN(C(=O)[C@@H]3CC[C@H](C)N3)[C@@H](C)C2)c2ccncc21)C(C)C (stereo in doubt) [Example 63, N-Ethyl-5-fluoro-N-isopropyl-2-(2-methyl-3-((2S,4RS)-2-methyl-1-((2S,5S)-5-methylpyrrolidine-2-carbonyl)piperidine-4-carbonyl)-1H-pyrrolo[2,3-c]pyridine-1-yl)benzamide] |  | 1.5
Cc1c(C(=O)C2CCN(C(=O)[C@H]3NC[C@@H]4C[C@@H]43)CC2)c2ccncc2n1-c1ccc(F)cc1C(=O)N(CC(F)(F)F)C(C)C (single isomer, unassigned) [Example 51-1] |  | 1.7
CCN(C(=O)c1cc(F)ccc1-n1cc(C(=O)C2CCN(C(=O)[C@H]3NC[C@@H]4C[C@@H]43)CC2)c2ccncc21)C(C)C [Example 28, 2-(3-(1-((1S,2S,5R)-3-Azabicyclo[3.1.0]hexane-2-carbonyl)piperidine-4-carbonyl)-1H-pyrrolo[2,3-c]pyridin-1-yl)-N-ethyl-5-fluoro-N-isopropylbenzamide] | 6.40 | 1.1
C=C1C[C@@H]2CC[C@H]1[C@@H](C(=O)N1CCC(C(=O)c3cn(-c4ccc(F)cc4C(=O)N(C(C)C)C(C)C)c4cnccc34)CC1)N2 [Example 18, 5-Fluoro-N,N-diisopropyl-2-(3-(1-((1S,3S,4R)-5-methylene-2-azabicyclo[2.2.2]-octane-3-carbonyl)piperidine-4-carbonyl)-1H-pyrrolo[2,3-c]pyridin-1-yl)benzamide] | 6.00 | 3.1

— US20240335431A1, “1-H-PYRROLO[2,3-c]PYRIDINE COMPOUNDS” (Acerta Pharma B.V., priority 2023, published 2024)
